What was measured:
MukB [1] = target: T1, MukB (Escherichia coli, UniProt P22523); experiment: magnetic bead DNA bridging pull-down; type: biochemical; details: 20 mM HEPES pH 7.7, 50 mM NaCl, 2 mM MgCl2, 5% glycerol, 1 mM DTT
MukB [2] = target: T1, MukB; experiment: SPR; type: binding; details: 25 uM compound, 20 mM HEPES-KOH pH 7.0, 50 mM NaCl, 0.5% DMSO

T1 sequence (P22523 whole entry): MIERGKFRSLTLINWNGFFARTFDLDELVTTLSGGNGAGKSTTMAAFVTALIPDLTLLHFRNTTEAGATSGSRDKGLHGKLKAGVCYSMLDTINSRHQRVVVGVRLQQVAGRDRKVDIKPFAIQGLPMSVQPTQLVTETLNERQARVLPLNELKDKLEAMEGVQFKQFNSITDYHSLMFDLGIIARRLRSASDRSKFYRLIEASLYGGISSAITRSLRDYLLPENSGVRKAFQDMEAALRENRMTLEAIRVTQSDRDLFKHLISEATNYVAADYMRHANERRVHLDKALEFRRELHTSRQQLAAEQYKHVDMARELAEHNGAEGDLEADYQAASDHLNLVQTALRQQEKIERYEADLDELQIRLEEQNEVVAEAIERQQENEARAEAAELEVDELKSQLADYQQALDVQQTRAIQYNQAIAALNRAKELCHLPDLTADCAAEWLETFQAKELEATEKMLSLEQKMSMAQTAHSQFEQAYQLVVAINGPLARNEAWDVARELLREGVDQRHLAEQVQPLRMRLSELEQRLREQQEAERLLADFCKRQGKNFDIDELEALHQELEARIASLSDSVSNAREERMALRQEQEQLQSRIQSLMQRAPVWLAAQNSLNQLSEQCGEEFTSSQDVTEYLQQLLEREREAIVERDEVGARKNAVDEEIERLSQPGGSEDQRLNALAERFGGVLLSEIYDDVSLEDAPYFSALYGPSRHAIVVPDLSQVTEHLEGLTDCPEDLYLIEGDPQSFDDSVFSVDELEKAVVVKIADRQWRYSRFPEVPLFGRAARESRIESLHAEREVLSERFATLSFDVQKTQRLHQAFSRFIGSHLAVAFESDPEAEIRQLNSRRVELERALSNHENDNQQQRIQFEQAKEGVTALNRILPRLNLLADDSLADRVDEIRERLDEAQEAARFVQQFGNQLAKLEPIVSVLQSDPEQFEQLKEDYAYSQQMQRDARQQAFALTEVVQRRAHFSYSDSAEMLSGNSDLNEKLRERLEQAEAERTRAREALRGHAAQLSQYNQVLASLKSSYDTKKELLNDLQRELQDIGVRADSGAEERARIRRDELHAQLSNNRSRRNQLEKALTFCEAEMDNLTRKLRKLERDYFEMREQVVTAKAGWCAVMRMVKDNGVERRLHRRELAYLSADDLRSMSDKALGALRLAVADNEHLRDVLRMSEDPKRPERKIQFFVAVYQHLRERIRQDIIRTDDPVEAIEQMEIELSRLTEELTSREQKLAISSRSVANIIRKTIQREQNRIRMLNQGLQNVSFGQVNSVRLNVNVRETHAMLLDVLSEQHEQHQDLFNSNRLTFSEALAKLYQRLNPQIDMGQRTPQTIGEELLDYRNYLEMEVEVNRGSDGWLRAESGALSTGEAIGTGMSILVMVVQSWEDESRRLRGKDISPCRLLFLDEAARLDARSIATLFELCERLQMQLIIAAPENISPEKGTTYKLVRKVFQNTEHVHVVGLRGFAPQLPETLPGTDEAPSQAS

SMILES	inhibition of DNA bridging (MukB [1])	SPR (Biacore, MukB immobilised on CM5 chip) (MukB [2])
Cc1c2ccncc2c(C)c2c1[nH]c1ccccc12 [NSC71795]	Michellamine B, NSC71795 and, to a smaller degree, NSC45383, inhibit MukB mediated DNA bridging	A much weaker binding could be detected for NSC71795 (ellipticine) and NSC45383 (streptonigrin)
COc1cc(C)cc2c(-c3c(O)cc(O)c4c3C[C@H](C)N[C@H]4C)cc(-c3cc(-c4c(O)cc(O)c5c4C[C@H](C)N[C@H]5C)c4cc(C)cc(OC)c4c3O)c(O)c12 [NSC661755, Michellamine B]	Michellamine B, NSC71795 and, to a smaller degree, NSC45383, inhibit MukB mediated DNA bridging	–
COC1=C(N)C(=O)c2nc(-c3nc(C(=O)O)c(C)c(-c4ccc(OC)c(OC)c4O)c3N)ccc2C1=O [NSC45383]	Michellamine B, NSC71795 and, to a smaller degree, NSC45383, inhibit MukB mediated DNA bridging	A much weaker binding could be detected for NSC71795 (ellipticine) and NSC45383 (streptonigrin)

Source: article PMC6467689 (ACS infectious diseases, 2018)
